Reference: patent US7824710B2, “Crystalline and stable form of andolast” (Rottapharm S.p.A., priority 2006, dated 2010)
Several values for one entry are separate records, joined by “and”; a condition that tells them apart may be missing. Equal values may be shown once. Read-outs that look alike come from different tables or passages of the source.

How the values were obtained:
Format in all cases: physicochemical
[1] = Solubility of the disodium salt in water; settings: 25° C.
Procedure: N-4-(1H-tetrazol-5-yl)phenyl-4-(1H-tetrazol-5-yl)benzamide is prepared as described in WO 90/09989, Example 13 (herein incorporated by reference). The disodium salt of N-4-(1H-tetrazol-5-yl)phenyl-4-(1H-tetrazol-5-yl)benzamide can be prepared directly as the pentahydrate or precipitated as an undefined mixture of hydrates and then converted into the pentahydrate (Form A), by re-crystallization or by phase equilibration (slurry conversion: slurry in an appropriate solvent mixture). In both cases the disodium salt is obtained by adding to a suspension in water of N-4-(1H-tetrazol-5-yl)phenyl-4-(1H-tetrazol-5-yl)benzamide, an amount of aqueous sodium hydroxide or sodium alkoxide, ranging from 2.0 to 2.2 equivalents, preferably 2.1 equivalents, being sodium methoxide, sodium ethoxide and sodium isopropoxide the preferred alkoxide, at a temperature ranging from +15° to +40° C. […] The resulting mixture is stirred until the solid is completely dissolved, then the pH of the solution is carefully adjusted to 6.5-7.5, by addition of diluted hydrochloric acid, filtered and concentrated under vacuum, at a temperature not exceeding +60° C. […]

[2] = Moisture sorption/desorption by Differential Vapor Sorption (DVS); settings: for R.H. at which substantial desorption (loss of water) starts: DVS scanning mode, 5% ΔR.H. per hour
Procedure: The moisture sorption/desorption behavior was analyzed for different solids using Differential Vapor Sorption (DVS) technique. In FIG. 8 is reported as an example the sorption/desorption isotherms for batch B/6272. […] Though the different batches were not characterized by exactly matching DVS diagrams all reached the about 20% water content after an appropriate time.
This surprising stability to moisture of Form A is also confirmed by DVS experiments. In the scanning mode, water is only lost when about 0% R.H. is reached. Moisture sorption/desorption behavior for the pentahydrate is reported in Example 9 (FIG. 14).
Water vapor sorption/desorption was analyzed using Surface Measurement System Ltd. DVS-1 apparatus. The sample was allowed to equilibrate at 50% R.H. before starting a predefinite humidity program, scanning with 5% ΔR.H. hour^−1 and with several “isohumid” equilibration periods (see FIG. 14 for details). The water content of the sample used for DVS was calculated on the basis of KF analysis, while crystalline form was assessed by FT-Raman spectroscopy. The DVS plots of water content vs. R.H. and R.H. vs. time are reported for Andolast disodium pentahydrate (Form A) in FIG. 14. It can be seen from the DVS plot that substantial desorption starts only at almost 0% RH.

[3] = Aerosol performance of dry powder formulation for inhalation by MSLI (Multi Step Liquid Impinger); settings: dose 8 mg
Source text: As discussed below Andolast disodium salt as Form A can be formulated according to several pharmaceutical compositions.

[4] = Storage of open samples in humidity controlled chamber (stability to moisture, Example 8); settings: 9 days; for FT-Raman / KF (water content) / XRPD: open sample
Source text: The list of improved physical and mechanical characteristics reported below is intended at documenting representative examples of advantages Form A is endowed with over the undefined hydrated forms obtained according to uncontrolled conditions.
samples of Form A were stored, as open samples, in an humidity controlled chamber for 9 days, in Table 5 water content (KF), XRPD and FT-Raman spectra at the end-point of the experiment are reported vs. R.H. […]

[5] = Stability to temperature and mechanical mill (Example 10); settings: open sample 1 day at 50° C., then milled 10 min at 24 s−1 in ball swing mill
Procedure: about 1 g of Andolast disodium salt Form A was stored, as open sample, for 1 day at 50° C. The product was then milled for 10 min. at 24 s−1 in a ball swing mill. A sample was then analyzed by KF and FT-Raman spectroscopy.

[6] = Stability of crystalline form to jet mill micronization (Example 11); settings: MC Jet Mill, nitrogen, 12 bar, about 10 g/30 sec, without cooling
Source text: In Example 11 it is reported how Form A can be successfully micronized using conditions identical to the ones used for the micronization of the batch B/7081 (see FIGS. 7a and 7b for XRPD spectra) without altering XRPD and spectroscopic characteristics (Ft-Raman and FT-IR), thus proving Form A stability and crystalline form consistency also after the micronization step affording the suitable drug substance for preparing dry powder and pressurized HFA aerosols formulations for inhalation.
Andolast disodium form A is micronized, without cooling, using an MC Jet Mill apparatus, and nitrogen as carrier gas, at 12 bar and with a feeding rate of about 10 g/30 sec.

[7] = ICH accelerated stability testing
[8] = active ingredient/excipient 1:1, Mean of 6 MSLI runs
[9] = active ingredient/excipient 1:1, capsule inhaler, single MSLI runs 1-6
[10] = active ingredient/excipient 1:1, Mean of 6 MSLI runs, listed as Form A obtained at Example 3
[11] = active ingredient/excipient 1:1, capsule inhaler, single MSLI runs 1-6, listed as Form A obtained at Example 3

O=C(Nc1ccc(-c2nn[n-]n2)cc1)c1ccc(-c2nn[n-]n2)cc1.[Na+].[Na+] [Andolast disodium salt, N-4-(1H-tetrazol-5-yl)phenyl-4-(1H-tetrazol-5-yl)benzamide disodium salt]
solubility [1]: ~150 mg/mL

O=C(Nc1ccc(-c2nn[n-]n2)cc1)c1ccc(-c2nn[n-]n2)cc1.[Na+].[Na+] [B/6272, reference compound]
hygroscopic character of the solid [2]: strongly hygroscopic
water content at plateau of moisture sorption ([2]; DVS, continuous sorption of moisture): about 20%

O=C(Nc1ccc(-c2nn[n-]n2)cc1)c1ccc(-c2nn[n-]n2)cc1.[Na+].[Na+] [B/7080, reference compound]
DD (Delivered Dose) [3, 8]: 6.63 mg
FPD (Fine Particle Dose) [3, 8]: 1.12 mg
FPF (Fine Particle Fraction) [3, 8]: 17%
MD (Metered Dose) [3, 8]: 7.55 mg
MMAD [3, 8]: 5.2 μm
DD (Delivered Dose) [3, 9]: 6.66 mg and 5.96 mg and 6.77 mg and 7.01 mg and 6.57 mg and 6.81 mg
FPD (Fine Particle Dose) [3, 9]: 0.96 mg and 0.99 mg and 1.21 mg and 1.01 mg and 1.23 mg and 1.30 mg
MD (Metered Dose) [3, 9]: 7.60 mg and 7.29 mg and 7.61 mg and 7.85 mg and 7.65 mg
MMAD [3, 9]: 5.3 μm and 5.2 μm and 5.1 μm and 5.4 μm

O=C(Nc1ccc(-c2nn[n-]n2)cc1)c1ccc(-c2nn[n-]n2)cc1.[Na+].[Na+] [Example 3]
DD (Delivered Dose) [3, 10]: 7.46 mg
FPD (Fine Particle Dose) [3, 10]: 2.16 mg
FPF (Fine Particle Fraction) [3, 10]: 29%
MD (Metered Dose) [3, 10]: 8.48 mg
MMAD [3, 10]: 3.8 μm
DD (Delivered Dose) [3, 11]: 7.25 mg and 7.54 mg and 7.47 mg and 7.33 mg and 7.71 mg and 7.43 mg
FPD (Fine Particle Dose) [3, 11]: 1.96 mg and 2.07 mg and 2.58 mg and 1.97 mg and 2.18 mg and 2.20 mg
FPF (Fine Particle Fraction) [3, 11]: 27% and 35% and 28% and 30%
MD (Metered Dose) [3, 11]: 8.31 mg and 8.67 mg and 8.46 mg and 8.33 mg and 8.49 mg and 8.60 mg
MMAD [3, 11]: 3.8 μm and 4.0 μm and 3.6 μm and 3.9 μm

O=C(Nc1ccc(-c2nn[n-]n2)cc1)c1ccc(-c2nn[n-]n2)cc1.[Na+].[Na+] [Form A, N-4-(1H-tetrazol-5-yl)phenyl-4-(1H-tetra-zol-5yl)benzamide disodium salt]
Stability to moisture (water content and solid form) ([4]; R.H. from 12% to 85%, room temperature): did not alter the water content of any sample, neither the solid form
FT-Raman ([4]; RH 12%): Complies with Form A
KF (water content) ([4]; RH 12%): 19.26%
XRPD ([4]; RH 12%): Complies with Form A
FT-Raman ([4]; RH 22%): Complies with Form A
KF (water content) ([4]; RH 22%): 19.36%
XRPD ([4]; RH 22%): Complies with Form A
FT-Raman ([4]; RH 32%): Complies with Form A
KF (water content) ([4]; RH 32%): 19.34%
XRPD ([4]; RH 32%): Complies with Form A
FT-Raman ([4]; RH 53%): Complies with Form A
KF (water content) ([4]; RH 53%): 19.35%
XRPD ([4]; RH 53%): Complies with Form A
FT-Raman ([4]; RH 65%): Complies with Form A
KF (water content) ([4]; RH 65%): 19.25%
XRPD ([4]; RH 65%): Complies with Form A
FT-Raman ([4]; RH 75%): Complies with Form A
KF (water content) ([4]; RH 75%): 19.22%
XRPD ([4]; RH 75%): Complies with Form A
FT-Raman ([4]; RH 85%): Complies with Form A
KF (water content) ([4]; RH 85%): 19.43%
XRPD ([4]; RH 85%): Complies with Form A
R.H. at which substantial desorption (loss of water) starts ([2]; disodium salt): about 0 % RH
R.H. at which substantial desorption (loss of water) starts ([2]; listed as Andolast disodium pentahydrate (Form A), disodium salt): ~0 % RH
hygroscopic character of the solid ([2]; listed as Andolast disodium Form A, disodium salt): not hygroscopic
KF (water content) [5]: 19.53%
crystalline change by Raman spectra [5]: no crystalline change occurred
changes in XRPD, FT-IR and FT-Raman versus not-micronized starting material [6]: no changes were observed
stability (physical form and chemical stability) [7]: confirmed its stability
